Experimental findings from publication PMC11079024, “Identification of a family of species-selective complex I inhibitors as potential anthelmintics” (Nature Communications, 2024) are described below.

Where “and” joins values, the source holds several entries; their conditions need not be identical. Equal values may be shown once.

Test [1] deals with H. sapiens (HEK293 cells) complex I (Homo sapiens, UniProt O75251+O75306+P03886). As to the kind of experiment: In vitro complex I activity assay, HEK293 cell mitochondria. It is filed as biochemical.
Test [2] concerns C. elegans (N2) complex I (NADH:ubiquinone oxidoreductase). As to the kind of experiment: biochemical. It is filed as biochemical. To be noted: wild-type C. elegans mitochondria. The gist of the method:
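Mitochondria from liquid-cultured adults were freeze-thawed thrice before the 15-min DCIP-coupled NADH oxidation read.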

The subject of the next test is L1 C. briggsae (AF16). Description: Liquid development and viability assay, C. briggsae. As to conditions: liquid growth and development assay, 1 = like DMSO control, 0 = death. It is filed as cell-based, Caenorhabditis briggsae. An excerpt: (§1) Supplementary Figure 9. Class A, B, and C benzimidazoles inhibit complex I of several Clade V nematode species in vitro. […]
(§2) against the in vitro complex I activity from C. elegans, C. briggsae, P. pacificus, and P. hermaphrodita […]
(§3) L1 C. elegans (N2), C. briggsae (AF16), and P. pacificus (PS312) in a nematode liquid growth and development assay. The colour-coded scale denotes the viability of nematodes following drug treatment relative to DMSO controls; white/pale-yellow indicates nematode growth and viability similar to DMSO controls and red indicates nematode death and arrested development. Data are the mean of at least three biological replicates. Due to seemingly poor growth in liquid culture, P. hermaphrodita was not tested in the liquid viability and development assay.
(§4) Supplementary Figure 9 (continued). Davie et al.

The subject of the next test is L1 P. pacificus (PS312). As to the kind of experiment: Liquid development and viability assay, P. pacificus. It is filed as cell-based, Pristionchus pacificus. As to conditions: liquid growth and development assay, 1 = like DMSO control, 0 = death.
From the text: as §1, §2, §3, §4

H. sapiens (HEK293 cells) complex I, sequence (O75251 39-213): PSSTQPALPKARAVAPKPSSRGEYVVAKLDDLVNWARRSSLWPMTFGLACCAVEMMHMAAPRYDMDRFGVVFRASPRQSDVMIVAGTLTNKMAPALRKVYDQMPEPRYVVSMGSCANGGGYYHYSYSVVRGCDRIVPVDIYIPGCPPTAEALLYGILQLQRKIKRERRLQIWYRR
H. sapiens (HEK293 cells) complex I, sequence (P03886 whole entry): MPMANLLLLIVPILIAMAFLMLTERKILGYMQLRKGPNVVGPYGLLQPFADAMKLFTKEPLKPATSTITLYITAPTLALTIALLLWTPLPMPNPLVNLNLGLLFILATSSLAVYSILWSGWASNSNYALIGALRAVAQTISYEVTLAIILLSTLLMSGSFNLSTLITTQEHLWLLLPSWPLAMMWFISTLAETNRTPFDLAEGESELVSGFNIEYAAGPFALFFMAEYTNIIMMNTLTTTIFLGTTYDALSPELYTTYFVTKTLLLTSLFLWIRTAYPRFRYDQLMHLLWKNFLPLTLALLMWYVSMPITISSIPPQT
H. sapiens (HEK293 cells) complex I, sequence (O75306 34-463): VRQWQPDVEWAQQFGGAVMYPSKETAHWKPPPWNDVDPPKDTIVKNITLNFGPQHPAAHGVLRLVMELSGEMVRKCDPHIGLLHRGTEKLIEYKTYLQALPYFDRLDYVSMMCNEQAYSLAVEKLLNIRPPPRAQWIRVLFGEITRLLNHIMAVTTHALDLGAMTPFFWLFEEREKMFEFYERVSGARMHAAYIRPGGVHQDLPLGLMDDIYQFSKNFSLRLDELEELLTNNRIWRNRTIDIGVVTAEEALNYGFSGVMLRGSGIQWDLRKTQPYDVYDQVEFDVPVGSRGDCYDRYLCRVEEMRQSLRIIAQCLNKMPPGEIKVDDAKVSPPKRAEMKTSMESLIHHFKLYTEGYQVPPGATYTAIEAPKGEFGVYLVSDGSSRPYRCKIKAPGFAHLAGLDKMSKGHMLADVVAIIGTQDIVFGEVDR

By IC50 is commonly meant the concentration at which inhibition is half-maximal. Read a high IC50 as weaker potency in that assay. With `CC(C)Cc1ccc(C(C)c2nc3ccccc3n2C)cc1` (stereo not shown) [NPD8790], the remaining activity at 0.06 µM in test [1] (H. sapiens (HEK293 cells) mitochondria, 0.06 µM, Mean of replicates, read-out: in vitro complex I activity relative to solvent control) turned out to be 90.2%. The remaining activity at 0.13 µM in test [1] (H. sapiens (HEK293 cells) mitochondria, 0.13 µM, Mean of replicates, read-out: in vitro complex I activity relative to solvent control) came out at 78.3%. Moreover, in test [1] (H. sapiens (HEK293 cells) mitochondria, 0.313 µM, Mean of replicates, read-out: in vitro complex I activity relative to solvent control), the remaining activity at 0.313 µM was 76.7%. Besides, the remaining activity at 0.625 µM in test [1] (H. sapiens (HEK293 cells) mitochondria, 0.625 µM, Mean of replicates, read-out: in vitro complex I activity relative to solvent control) was 129%. For the same molecule, the remaining activity at 1.5 µM in test [1] (H. sapiens (HEK293 cells) mitochondria, 1.5 µM, Mean of replicates, read-out: in vitro complex I activity relative to solvent control) came out at 95.7%. In test [1] (H. sapiens (HEK293 cells) mitochondria, 3 µM, Mean of replicates, read-out: in vitro complex I activity relative to solvent control), the remaining activity at 3 µM amounted to 102%. The remaining activity at 15 µM in test [1] (H. sapiens (HEK293 cells) mitochondria, 15 µM, Mean of replicates, read-out: in vitro complex I activity relative to solvent control) amounted to 85.1%. Moreover, the remaining activity at 37.5 µM in test [1] (H. sapiens (HEK293 cells) mitochondria, 37.5 µM, Mean of replicates, read-out: in vitro complex I activity relative to solvent control) is 52.8%. Further, the remaining activity at 75 µM in test [1] (H. sapiens (HEK293 cells) mitochondria, 75 µM, Mean of replicates, read-out: in vitro complex I activity relative to solvent control) was 61.5%. Moreover, in test [1] (mitochondria purified from HEK293 cells), the 50% inhibitory concentration (IC50) was greater than 75 µM.

Take `c1ccc2[nH]c(-c3cscn3)nc2c1` [Thiabendazole]: the “percent (%) in vitro complex I activity relative to solvent control” value is 102.109% in test [2] (0.125 µM, mean of replicates); 99.976% and 103.068% and 101.883% and 103.510% in test [2] (0.125 µM, single replicate); 98.029% in test [2] (0.313 µM, mean of replicates); 96.436% and 97.421% and 98.637% and 99.622% in test [2] (0.313 µM, single replicate); 100.000% in test [2] (0.625 µM, mean of replicates); 100.000% in test [2] (0.625 µM, single replicate). In addition, the “percent (%) in vitro complex I activity relative to solvent control” value in test [2] (1.5 µM, mean of replicates) was 94.806%; in test [2] (1.5 µM, single replicate), 99.025% and 95.797% and 89.075% and 95.328%; in test [2] (3 µM, mean of replicates) it was 103.387%; in test [2] (3 µM, single replicate), 101.704% and 108.843% and 104.258% and 98.742%; in test [2] (15 µM, mean of replicates), 102.027%; in test [2] (15 µM, single replicate), 100.357% and 106.821% and 103.640% and 97.291%. Also, the “percent (%) in vitro complex I activity relative to solvent control” value in test [2] (37.5 µM, mean of replicates) is 98.201%; in test [2] (37.5 µM, single replicate) it was 99.533% and 98.195% and 100.518% and 94.556%; in test [2] (75 µM, mean of replicates) it was 97.767%; in test [2] (75 µM, single replicate) it was 97.247% and 98.620% and 98.499% and 96.702%.

Regarding `Cc1nc2ccccc2n1Cc1ccc(Cl)cc1` [STK697993], the “viability score (0-1) relative to DMSO controls” value with L1 C. briggsae (AF16) (2 µM) worked out at 1.000; in the test on L1 C. briggsae (AF16) (3.9 µM), 1.000; in the test with L1 C. briggsae (AF16) (15.6 µM), 1.000; in the test on L1 C. briggsae (AF16) (31.3 µM), 0.341; in the test on L1 C. briggsae (AF16) (62.5 µM), 0.009; in the test with L1 C. briggsae (AF16) (125 µM) it was 0.017. The “viability score (0-1) relative to DMSO controls” value in the test with L1 C. briggsae (AF16) (250 µM) was determined as 0.008; in the test on L1 P. pacificus (PS312) (2 µM) it was 1.000; in the test with L1 P. pacificus (PS312) (3.9 µM) it was 1.000; in the test with L1 P. pacificus (PS312) (15.6 µM) it was 0.943; in the test with L1 P. pacificus (PS312) (31.3 µM), 0.0076; in the test with L1 P. pacificus (PS312) (62.5 µM), 0.000. Further, the “viability score (0-1) relative to DMSO controls” value in the test with L1 P. pacificus (PS312) (125 µM) stood at 0.007; with L1 P. pacificus (PS312) (250 µM) it was 0.026.
